Experimental data as given in patent publication US20120027720A1, “PEPTIDE CONJUGATES” (priority 2008, published 2012).
*1 amine or outer side, *2 acyl side, *3 side chain or, on linkers, in order; H or OH if unused. Where no end group is shown, it is not given here. [ ]: non-standard residue; d: D form. Pen(Acm) = L-S-acetamidomethyl-penicillamine, CC(=O)NCSC(C)(C)[C@H](N[*:1])C(=O)[*:2]; Cys(StBu) = L-S-tert-butylthio-cysteine, CC(C)(C)SSC[C@H](N[*:1])C(=O)[*:2]; Cys(Bzl) = L-S-benzyl-cysteine, O=C([C@H](CSCc1ccccc1)N[*:1])[*:2]; Phe(4-CN) = N#Cc1ccc(C[C@H](N)C(=O)O)cc1; Phe(3-Me) = Cc1cccc(C[C@H](N)C(=O)O)c1; 2Pal = N[C@@H](Cc1ccccn1)C(=O)O; dAllylGly = C=CC[C@@H](N)C(=O)O; Cha = N[C@@H](CC1CCCCC1)C(=O)O; AllylGly = C=CC[C@H](N)C(=O)O; Phg = N[C@H](C(=O)O)c1ccccc1; Tle = CC(C)(C)[C@H](N)C(=O)O; hCys = N[C@@H](CCS)C(=O)O; hSer = N[C@@H](CCO)C(=O)O; Pra = C#CC[C@H](N)C(=O)O; Dap = NC[C@H](N)C(=O)O

What was measured:
[1] = system: CaCo2 monolayers; experiment: Trans Epithelial Electric Resistance (TEER) across cell monolayer; format: cell-based; design: key to Reduced TEER: + indicates an enhancement of the permeability of the tight junctions were observed; − indicates no enhancement of permeability was observed; conditions: Caco-2 monolayer
Excerpt: (§1) Agonists of tight junctions can be identified by their ability to enhance the flux of compounds (e.g. ions, Lucifer Yellow) through a cell monolayer that comprises tight junctions; or by their ability to reduce TEER across a cell monolayer that comprises tight junctions. Treatment of CaCo2 monolayers with peptide FCIGRL (SEQ ID NO: 1) led to a 51-fold enhancement of Lucifer Yellow permeability through CaCo2 monolayers compared to vehicle alone. Treatment of CaCo2 monolayers with peptide FCIGRL led to a 16-fold decrease in TEER across CaCo2 monolayers compared to vehicle alone.
(§2) Determination of TEER and Lucifer Yellow Flux
(§3) Prepare Modified Hank's Balanced Salt Solution (MHBSS) by obtaining 1 L bottle of HBSS removing 10 ml of HBSS and replacing it with 10 ml HEPES buffer pH 7.0. Adjust pH to 7.4±0.1 using concentrated NaOH (10N).
(§4) Remove Caco-2 cells from incubator, grown on 12-well, […], polycarbonate Transwell® filters (Corning) and record passage#, date cells seeded and age in days.
(§5) Aspirate cell culture medium from both the apical (AP) and basolateral (BL) compartments, replacing with 0.5 ml and 1.5 ml of MHBSS, respectively. Incubate cells at 37° C. for 30 minutes.
Using the MilliCell®-ERS instrument (Millipore), measure and record the transepithelial electrical resistance (TEER) across each filter and record.
(§6) Aspirate solution from the apical compartment of each filter (n=3 per condition) and replace with 0.5 ml of control and test solutions containing Lucifer Yellow and test compound if appropriate.
(§7) Place all plates into incubator set at 37° C. (±0.2), 50 RPM (±5) for a total of 180 minutes.
At t=30, 60, 120 and 180 minutes, measure and record the transepithelial electrical resistance (TEER) across each filter using the MilliCell-ERS instrument.
(§8) Cells: Caco-2 cells passage 40-60 grown on Transwell® plates for 21-28 days
(§9) Culture Medium: DMEM supplemented with 10% fetal bovine serum, 1% NEAA, 1% Penn/Strep
(§10) Buffers: Hank's Balanced Salt Solution (HBSS) without calcium and magnesium
(§11) Flasks: 100×20 mm Tissue culture dish Falcon.
(§12) Plates: 12 well polycarbonate Transwell® filters; 0.3 uM pore size

[2] = system: CaCo2 monolayers; experiment: Epithelial flux of Lucifer Yellow through cell monolayer; format: cell-based; design: key to Enhanced LY permeability: + indicates an enhancement of the permeability of the tight junctions were observed; − indicates no enhancement of permeability was observed; conditions: Lucifer Yellow flux, Caco-2 monolayer
Excerpt: as §1, §2, §3, §4, §5, §6, §7
At t=60, 120 and 180 minutes remove 100 μl from each basolateral compartment and place it in a 96-well plate for Lucifer Yellow analysis, replace with 100 μl of MHBSS.
Make a Lucifer Yellow standard curve with the following dilutions (7500 μM, 3750 μM, 750 μM, 375 μM, 75 μM, 37.5 μM, 7.5 μM, 3.75 μM, 0.75 μM) and pipette […] of each into a 96-well plate except for the first three standards mentioned above which require a 1:10 dilutions prior to transferring to the 96-well plate.
Harvest the remaining start solutions and what is left in each apical compartment into 1.5 ml vials. Freeze at −20° C. for future analysis.
Analyze each 96-well plate in a Tecan Spectra Fluor Plus using Magellan at 485 and 535 nm.
as §8, §9, §10, §11, §12

Substance | Reduced TEER [1] | Enhanced LY permeability [2]
150 (Ac-F[hSer]IGRF; also: peptide conjugate) [compound 150] | + | +
151 (F[hSer]IGRF; also: peptide conjugate, Xaa: 'may be' homoserine) [compound 151] | − | −
152 (F[Cys(Bzl)]IGRL; also: peptide conjugate, Xaa: 'may be' L-S-benzyl-cysteine) [compound 152] | − | −
153 (F[Cys(StBu)]IGRL; also: peptide conjugate, Xaa: 'may be' L-S-tert-butylthio-cysteine) [compound 153] | − | −
154 (F[Phg]IGRL-OH; not fully specified; printed as Phe-Phg-Ile-Gly-Arg-Leu-OH; also: peptide conjugate, Xaa: 'may be' L-phenylglycine) [compound 154] | + | +
155 (F[dV]IGRL-OH; also: peptide conjugate) [compound 155] | − | −
156 (F[Cha]IGRL-OH; also: peptide conjugate) [compound 156] | − | −
157 (F[Tle]IGRL-OH; not fully specified; also: peptide conjugate, Xaa: 'may be' L-tert-butylglycine) [compound 157] | + | +
159 (F[L‑(R,S)‑3,4‑cis‑methanoproline]IGRL; not fully specified; also: peptide conjugate) [compound 159] | + | −
160 (F[Dap]IGRL; not fully specified; printed as Phe-Dpr-Ile-Gly-Arg-Leu; also: peptide conjugate) [compound 160] | + | +
161 (F[Pen(Acm)]IGRL; also: peptide conjugate) [compound 161] | + | +
162 (F[hCys]IGRL; also: peptide conjugate, Xaa: 'may be' homocysteine) [compound 162] | + | +
163 (F[2Pal]IGRL; also: peptide conjugate, Xaa: 'may be' L-beta-(2-pyridyl)-alanine) [compound 163] | − | −
164 (FL[dI]GRL-NH2; also: peptide conjugate) [compound 164] | − | −
165 (F[dL]IGRL-NH2; also: peptide conjugate) [compound 165] | − | −
166 (LRG[dI]LF-NH2; also: peptide conjugate) [compound 166] | − | −
168 (F[L‑4,5‑dehydro‑leucine]IGRL; not fully specified; also: peptide conjugate) [compound 168] | − | +

Substance | Reduced TEER [1] | Enhanced LY permeability [2]
169 (Ac-F[hSer]IGR-NH2; also: peptide conjugate) [compound 169] | − | −
170 (F[hSer][dI]GR-NH2; also: peptide conjugate) [compound 170] | − | −
171 (Ac-F[hSer]IGRL-NH2; also: peptide conjugate) [compound 171] | − | −
172 (F[hSer][dI]GRL; not fully specified; also: peptide conjugate, Xaa: 'may be' homoserine) [compound 172] | − | −
173 ([Phe(4-CN)]FIGRL; also: peptide conjugate, Xaa: 'may be' L-4-cyano-phenylalanine) [compound 173] | − | −
174 ([Phe(3-Me)]FIGRL; not fully specified; also: peptide conjugate) [compound 174] | − | −
175 (F[L‑beta‑cyclopropyl‑alanine]IGRL; also: peptide conjugate) [compound 175] | − | −
176 (F[Pra]IGR-NH2; N-terminus assumed; SMILES C#CC[C@H](NC(=O)[C@@H](N)Cc1ccccc1)C(=O)N[C@H](C(=O)NCC(=O)N[C@@H](CCCNC(=N)N)C(N)=O)[C@@H](C)CC) [compound 176] | − | −
183 (F[AllylGly]IGRL-OH; N-terminus assumed; SMILES C=CC[C@H](NC(=O)[C@@H](N)Cc1ccccc1)C(=O)N[C@H](C(=O)NCC(=O)N[C@@H](CCCNC(=N)N)C(=O)N[C@@H](CC(C)C)C(=O)O)[C@@H](C)CC) [compound 183] | + | +
184 (F[AllylGly]IGR-NH2; N-terminus assumed; SMILES C=CC[C@H](NC(=O)[C@@H](N)Cc1ccccc1)C(=O)N[C@H](C(=O)NCC(=O)N[C@@H](CCCNC(=N)N)C(N)=O)[C@@H](C)CC) [compound 184] | − | −
185 (F[dAllylGly]IGR-NH2; N-terminus assumed; SMILES C=CC[C@@H](NC(=O)[C@@H](N)Cc1ccccc1)C(=O)N[C@H](C(=O)NCC(=O)N[C@@H](CCCNC(=N)N)C(N)=O)[C@@H](C)CC) [compound 185] | − | −
186 (M[AllylGly]IGRL-NH2; N-terminus assumed; SMILES C=CC[C@H](NC(=O)[C@@H](N)CCSC)C(=O)N[C@H](C(=O)NCC(=O)N[C@@H](CCCNC(=N)N)C(=O)N[C@@H](CC(C)C)C(N)=O)[C@@H](C)CC) [compound 186] | − | −
187 (Q[AllylGly]IGRL-NH2; N-terminus assumed; SMILES C=CC[C@H](NC(=O)[C@@H](N)CCC(N)=O)C(=O)N[C@H](C(=O)NCC(=O)N[C@@H](CCCNC(=N)N)C(=O)N[C@@H](CC(C)C)C(N)=O)[C@@H](C)CC) [compound 187] | − | −
188 (L[AllylGly]IGRL-NH2; N-terminus assumed; SMILES C=CC[C@H](NC(=O)[C@@H](N)CC(C)C)C(=O)N[C@H](C(=O)NCC(=O)N[C@@H](CCCNC(=N)N)C(=O)N[C@@H](CC(C)C)C(N)=O)[C@@H](C)CC) [compound 188] | − | −
189 (S[AllylGly]IGRL-NH2; N-terminus assumed; SMILES C=CC[C@H](NC(=O)[C@@H](N)CO)C(=O)N[C@H](C(=O)NCC(=O)N[C@@H](CCCNC(=N)N)C(=O)N[C@@H](CC(C)C)C(N)=O)[C@@H](C)CC) [compound 189] | − | −
190 (T[AllylGly]IGRL-NH2; N-terminus assumed; SMILES C=CC[C@H](NC(=O)[C@@H](N)[C@@H](C)O)C(=O)N[C@H](C(=O)NCC(=O)N[C@@H](CCCNC(=N)N)C(=O)N[C@@H](CC(C)C)C(N)=O)[C@@H](C)CC) [compound 190] | − | −
191 (E[AllylGly]IGRL-NH2; N-terminus assumed; SMILES C=CC[C@H](NC(=O)[C@@H](N)CCC(=O)O)C(=O)N[C@H](C(=O)NCC(=O)N[C@@H](CCCNC(=N)N)C(=O)N[C@@H](CC(C)C)C(N)=O)[C@@H](C)CC) [compound 191] | − | −
